Data reported in patent US8586552B2, “4,6-substituted 2,5-dideoxystreptamine aminoglycoside antibiotics” (SelectX Pharmaceuticals, Inc., priority 2012, dated 2013).
Converted amounts (≈) assume the structure as drawn.

What was measured:
Assay type in all cases: cell-based
[1] = system: Pseudomonas aeruginosa PR3 (high-level, efflux-mediated, pan-aminoglycoside resistance); test: MIC against Pseudomonas aeruginosa clinical isolate PR3; settings: for MIC PR3: Pseudomonas aeruginosa resistant strain PR3; for MIC: Pseudomonas aeruginosa, read-out: MIC PR3
Source text: (§1) Pseudomonas aeruginosa is a prominent nosocomial pathogen. In addition to intrinsic antibiotic resistance to several antibiotics, Pseudomonas has acquired multiple additional mechanisms of resistance. As a result, therapeutic options for the treatment of infections caused by Pseudomonas aeruginosa are limited. We acquired clinical isolates of Pseudomonas aeruginosa (Micromyx LLC, Kalamazoo, Mich.), and used this panel to test compounds for Pseudomonicidal activity. […] For each strain and antibiotic, the mechanism(s) of resistance was inferred from the resistance profile. The presence of specific AGMEs was confirmed by colony PCR.

[2] = system: Pseudomonas aeruginosa (Pae, PAWT, ATCC #27853); test: MIC against Pseudomonas aeruginosa reference strain PAWT; settings: Pseudomonas aeruginosa wild type PAWT; for MIC: ATCC27853
Source text: (§2) For evaluation of efficacy, we assembled panels of representative gram-negative pathogens, including Pseudomonas aeruginosa (Pae, PAWT, ATCC #27853), Klebsiella pneumoniae (Kpn, KPWT, ATCC #700603), Acinetobacter baumannii (Aba, ABWT, ATCC #BAA-747) and Escherichia coli (Eco, ECWT, ATCC #25922). These reference strains are useful indicator organisms to characterize compound activity against bacteria from a pathogenic genus in the absence of multiple resistance mechanisms. Two strains (PAWT and ECWT) are reference strains cited within the Clinical and Laboratory Standards Institute (CLSI) Standards for susceptibility testing by Minimum Inhibitory Concentration (MIC) (SXPS2) and are well suited for quality control. ABWT and ECWT are widely susceptible to aminoglycoside antibiotics, whereas PAWT and KPWT harbor a single aminoglycoside-modifying enzyme (AGME) that targets 4,6-substituted-2-deoxystreptamine AGs. […]

[3] = system: Pseudomonas aeruginosa PR2 (clinical isolate with intermediate aminoglycoside resistance); test: MIC against Pseudomonas aeruginosa clinical isolate PR2; settings: Pseudomonas aeruginosa resistant strain PR2
Source text: as §1

[4] = system: Acinetobacter baumannii (Aba, ABWT, ATCC #BAA-747); test: MIC against Acinetobacter baumannii reference strain ABWT; settings: for MIC: ATCCBAA747
Source text: as §2

[5] = system: Escherichia coli (Eco, ECWT, ATCC #25922); test: MIC against Escherichia coli reference strain ECWT; settings: for MIC: ATCC25922
Source text: For evaluation of efficacy, we assembled panels of representative gram-negative pathogens, including Pseudomonas aeruginosa (Pae, PAWT, ATCC #27853), Klebsiella pneumoniae (Kpn, KPWT, ATCC #700603), Acinetobacter baumannii (Aba, ABWT, ATCC #BAA-747) and Escherichia coli (Eco, ECWT, ATCC #25922). These reference strains are useful indicator organisms to characterize compound activity against bacteria from a pathogenic genus in the absence of multiple resistance mechanisms. Two strains (PAWT and ECWT) are reference strains cited within the Clinical and Laboratory Standards Institute (CLSI) Standards for susceptibility testing by Minimum Inhibitory Concentration (MIC) (SXPS2) and are well suited for quality control. ABWT and ECWT are widely susceptible to aminoglycoside antibiotics, whereas PAWT and KPWT harbor a single aminoglycoside-modifying enzyme (AGME) that targets 4,6-substituted-2-deoxystreptamine AGs.

[6] = system: Pseudomonas aeruginosa PR1 (clinical isolate with intermediate aminoglycoside resistance); test: MIC against Pseudomonas aeruginosa clinical isolate PR1; settings: Pseudomonas aeruginosa resistant strain PR1
Source text: as §1

[7] = system: Klebsiella pneumoniae (Kpn, KPWT, ATCC #700603); test: MIC against Klebsiella pneumoniae reference strain KPWT; settings: Klebsiella pneumoniae KPWT, Table 2; for MIC: ATCC700603
Source text: as §2, with “These reference strains are useful indicator organisms to characterize compound activity against bacteria from a pathogenic genus in the absence of multiple resistance mechanisms.” left out

[8] = system: Klebsiella pneumoniae screening panel KPWT, KR1, KR2, KR3; test: Klebsiella pneumoniae screening panel (KPWT, KR1, KR2, KR3), reference AGs
Source text: Klebsiella pneumoniae (Kpn) and Escherichia coli (Eco) are gram-negative (like Pae), enteric pathogens with increasing clinical relevance. Many clinical isolates of Kpn and Eco harbor extended-spectrum beta-lactamases and are no longer sensitive to most beta-lactam antibiotics. We acquired clinical isolates of Klebsiella pneumoniae and Escherichia coli (Micromyx LLC, Kalamazoo, Mich.) and used this panel to test compounds for anti-enteric activity.

[9] = system: fifty resistant contemporary clinical isolates of Klebsiella pneumoniae; test: MIC90 against panel of resistant clinical isolates of Klebsiella pneumoniae; settings: Klebsiella pneumoniae; fifty resistant contemporary clinical isolates, reference antibiotics
Source text: Using this stringent Klebsiella pneumoniae panel, we tested a subset of compounds of the invention.

[10] = system: more than fifty resistant contemporary clinical isolates of Pseudomonas aeruginosa; test: MIC90 against panel of resistant clinical isolates of Pseudomonas aeruginosa; settings: Pseudomonas aeruginosa
Source text: To assess this, a panel of more than fifty resistant contemporary clinical isolates of Pseudomonas aeruginosa were obtained from multiple sources including JMI Laboratories (North Liberty, Iowa), Pfizer (Groton, Conn.), Micromyx (Kalamazoo, Mich.), Dr. J. Chow (Wayne State University). Strains were characterized for resistance to a wide variety of classes of antibiotics including aminoglycosides, β-lactams and fluoroquinolones. […] This reflects the difficulty in treating clinical Pseudomonas aeruginosa infections. […] Using this stringent panel, we tested a subset of compounds of the invention (Table 4).

Molecule | MIC PR3 [1] [µg/mL] | MIC PAWT [2] [µg/mL] | MIC PR2 [3] [µg/mL] | MIC ABWT [4] [µg/mL] | MIC ECWT [5] [µg/mL] | MIC PR1 [6] [µg/mL] | MIC KPWT [7] [µg/mL] | MIC90 [9] [µg/mL] | MIC90 [10] [µg/mL] | also measured
NC[C@H]1O[C@H](O[C@H]2[C@H](O)[C@@H](O[C@H]3O[C@H](CO)[C@@H](O)[C@H](N)[C@H]3O)[C@H](N)C[C@@H]2N)[C@H](O)[C@@H](O)[C@@H]1O [kanamycin A] | >64 | >64 | >64 | 1 (≈ 2.06 µM) | 4 (≈ 8.26 µM) | >64 | 32 (≈ 66 µM) | – | – | potency against Klebsiella pneumoniae test panel [8]: limited to no activity
CO/N=C(\C(=O)N[C@@H]1C(=O)N2C(C(=O)O)=C(CSc3nc(=O)c(=O)[nH]n3C)CS[C@H]12)c1csc(N)n1 [ceftriaxone] | – | – | – | – | – | – | – | ≥ 64 | ≥ 64 | –
[H]/N=C(/N)N[C@H]1[C@H](O)[C@@H](O)[C@H](O[C@@H]2O[C@@H](C)[C@](O)(C=O)[C@H]2O[C@@H]2O[C@@H](CO)[C@H](O)[C@@H](O)[C@@H]2NC)[C@@H](N/C(N)=N\[H])[C@@H]1O [streptomycin] | – | – | – | – | – | – | – | – | – | MIC [2]: 16 µg/mL (≈ 27.5 µM); MIC [3]: 16 µg/mL (≈ 27.5 µM); MIC [4]: 2 to 4 µg/mL (≈ 3.44 to 6.88 µM); MIC [5]: 4 µg/mL (≈ 6.88 µM); MIC [6]: 64 µg/mL (≈ 110 µM); MIC [7]: 1 to 2 µg/mL (≈ 1.72 to 3.44 µM)
C[C@@H](O)[C@H]1C(=O)N2C(C(=O)O)=C(S[C@@H]3CN[C@H](C(=O)Nc4cccc(C(=O)O)c4)C3)[C@H](C)[C@H]12 [ertapenem] | – | – | – | – | – | – | – | ≥ 64 | ≥ 64 | –
NC[C@H]1O[C@H](O[C@H]2[C@H](O)[C@@H](O[C@H]3O[C@H](CO)[C@@H](O)[C@H](N)[C@H]3O)[C@H](N)C[C@@H]2N)[C@H](N)[C@@H](O)[C@@H]1O [kanamycin B] | >64 | 16 (≈ 33.1 µM) | >64 | 0.5 to 1 | 2 (≈ 4.14 µM) | 64 (≈ 132 µM) | 16 (≈ 33.1 µM) | – | – | potency against Klebsiella pneumoniae test panel [8]: limited to no activity
C[C@@H](O)[C@H]1C(=O)N2C(C(=O)O)=C(S[C@@H]3CN[C@H](C(=O)N(C)C)C3)[C@H](C)[C@H]12 [meropenem] | – | – | – | – | – | – | – | ≥ 64 | ≥ 64 | –
NC[C@@H]1CC[C@@H](N)[C@@H](O[C@H]2[C@H](O)[C@@H](O[C@H]3O[C@H](CO)[C@@H](O)[C@H](N)[C@H]3O)[C@H](N)C[C@@H]2N)O1 [dibekacin] | – | – | – | – | – | – | – | – | – | MIC [1]: > 64 µg/mL; MIC [2]: 0.25 to 0.5 µg/mL (≈ 0.554 to 1.11 µM); MIC PAWT ([2]; listed as DIB): 0.25 to 0.5 µg/mL; MIC [3]: > 64 µg/mL; MIC [4]: 0.25 µg/mL (≈ 0.554 µM); MIC [5]: 1 to 2 µg/mL (≈ 2.21 to 4.43 µM); MIC [6]: 4 µg/mL (≈ 8.86 µM); MIC [7]: 16 µg/mL (≈ 35.4 µM); potency against Klebsiella pneumoniae test panel [8]: limited to no activity
NC[C@@H]1O[C@H](O[C@H]2[C@@H](O)[C@H](O[C@@H]3[C@@H](O)[C@H](N)C[C@H](N)[C@H]3O[C@H]3O[C@H](CN)[C@@H](O)[C@H](O)[C@H]3N)O[C@@H]2CO)[C@H](N)[C@@H](O)[C@@H]1O [neomycin] | >64 | 32 (≈ 52.1 µM) | 8 to 16 | 0.25 to 0.5 | 1 (≈ 1.63 µM) | 32 (≈ 52.1 µM) | 4 to 8 | – | – | –
CN[C@@H]1[C@H](O)[C@H](NC)[C@H]2O[C@@]3(O)C(=O)C[C@@H](C)O[C@H]3O[C@@H]2[C@H]1O [spectinomycin] | – | – | – | – | – | – | – | – | – | MIC [1]: > 64 µg/mL; MIC [2]: > 64 µg/mL; MIC [3]: > 64 µg/mL; MIC [4]: 16 µg/mL (≈ 48.1 µM); MIC [5]: 8 to 16 µg/mL (≈ 24.1 to 48.1 µM); MIC [6]: > 64 µg/mL; MIC [7]: 64 µg/mL (≈ 193 µM)
CC(C)(O/N=C(\C(=O)N[C@@H]1C(=O)N2C(C(=O)[O-])=C(C[n+]3ccccc3)CS[C@H]12)c1csc(N)n1)C(=O)O [ceftazidime] | – | – | – | – | – | – | – | ≥ 64 | ≥ 64 | –
gentamycin | >64 | 1 | >64 | 0.25 to 0.5 | 0.5 | 8 | 8 | – | – | –
